IC50 data for three molecules are collected here from patent publication EP4741383A1, “COMPOUND AND USE THEREOF AS ANTI-CANCER DRUG” (Tyligand Bioscience (Shanghai) Limited, priority 2023, dated 2025).

In this assay the test system is THP-1. As to the kind of experiment: CellTiter-Glo cell proliferation inhibition, THP-1. The format is cell-based. The following applies: Homo sapiens; THP-1 (leukemia cell line), 72 hours; read-out: Example IC50 (µM) THP-1. The text has this: This experiment used the CellTiter-Glo® Luminescent Cell Viability Assay kit from Promega to evaluate the inhibitory activity of the disclosed compounds on the proliferation of the following cell lines: 4T1 (mouse breast cancer cell line), A20 (mouse B-cell lymphoma cell line), A2780 (human ovarian cancer cell line), AsPC-1 (pancreatic cancer cell line), B16F10 (mouse melanoma cell line), BT549 (human breast cancer cell line), CT26 (mouse colon cancer cell line), EMT6 (mouse breast cancer cell line), HCT116 (colorectal cancer cell line), Jurket (acute leukemia cell line), KP-4 (pancreatic cancer cell line), LL/2 (mouse lung cancer cell line), MCF7 (breast cancer cell line), […] NCI-H358 (lung cancer cell line), NCI-H727 (gastric cancer cell line), NCI-1944 (lung cancer cell line), Pan 04.03 (pancreatic cancer cell line), SK-BR-3 (breast cancer cell line), THP-1 (leukemia cell line), TOV21G (ovarian cancer cell line), U87MG (glioblastoma cell line), and UM-UC-a (bladder cancer cell line).
All cell lines were purchased from Nanjing Kebai Biotechnology Co., Ltd. The following materials were also used in the experiment: RPMI-1640 media (HyClone, catalog number #SH30022.01), McCoy's 5A media (Thermo Fisher, catalog number #16600-082), MCDB 105 media (Sigma, catalog number #117-500), Medium 199 (Thermo Fisher, catalog number #11150-059), MEM media (Thermo Fisher, catalog number #11095-080), DMEM media (HyClone, catalog number #SH30027.01), fetal bovine serum (FBS) (ExCell, catalog number # M4530), Sodium Pyruvate (100Mm) (Thermo Fisher, catalog number #11360-070), and MEM NEAA (100X) (Thermo Fisher). […]
Cells were cultured according to the instructions provided by the cell supplier (Nanjing Kebai Biotechnology Co., Ltd.). […] Suspension or adherent cells were collected, and cell viability was determined using the trypan blue exclusion method, ensuring that cell viability was above 90%. […]
In general terms: In ATP-based viability assays light output follows the ATP content of the culture.
A word on the IC50: it is the concentration needed to halve the response being measured. On to `O=C(Nc1ccc(-c2csc(CO)c2)cc1)C(=O)Nc1ccc(-c2cc3cc(F)c(-c4nnn[nH]4)cc3n2C2CCC2)cc1` [Example 1], for which the IC50 worked out at 0.086 µM.
The figure for `CC1(n2c(-c3ccc(NC(=O)C(=O)Nc4ccc(N5CCC6(CCOC6)CC5)cc4)cc3)cc3cc(F)c(-c4nnn[nH]4)cc32)CCC1` [Example 68] is 0.063 µM; for `O=C(Nc1ccc(-c2cc3cc(F)c(-c4nnn[nH]4)cc3n2C2CCC2)cc1)C(=O)Nc1ccc(N2CCC3(CCC(O)C3)CC2)cc1` (stereo not drawn) [Example 100] it is 0.07 µM.
